Assay results reported in US20080096894A1, “Anti-Bacterial Compounds” (ASTON UNIVERSITY, priority 2005, published 2008).
Values after ≈ are worked out from the molar mass of the structure shown. Read-outs that look alike come from different tables or passages of the source. Each block holds one compound with its values, some of them ahead of it.

Key:
S. aureus = assay: MIC, agar dilution, multipoint inoculator; assay type: cell-based, Staphylococcus aureus; conditions: upper value of MIC reading
Protocol: (§1) This activity was measured using a multipoint inoculator method as follows. The MIC for each compound was measured using an agar dilution method (Onda, H., et al., Int. J. Antimicrob. Agents. 18, 263 (2001)) (Mueller Hinton agar) by means of a multipoint inoculator delivering 10^4 colony forming units per spot.

MRSA = assay: MIC, agar dilution, multipoint inoculator; assay type: cell-based, methicillin-resistant Staphylococcus aureus
Protocol: as §1
‘Staph’ refers to the reference strain of S. aureus (NCTC 6571). A tick in the MRSA column refers to a positive zone against MRSA strain 96-7474, and the MIC range (in μg/ml) which follows is that found against a panel of ten MRSA strains. Where MIC values are given for MRSA, these are stated as a range of values, as testing was carried out on a panel of clinical isolates.

B. bronchiseptica = assay: MIC, agar dilution, multipoint inoculator; assay type: cell-based; conditions: B. bronchiseptica NCTC 8344; upper value of MIC reading
Protocol: as §1

E. faecalis = assay: MIC, agar dilution, multipoint inoculator; assay type: cell-based; conditions: upper value of MIC reading
Protocol: as §1

E. faecium = assay: MIC, agar dilution, multipoint inoculator; assay type: cell-based, Enterococcus faecium; conditions: E. faecium NCTC 7171, upper value of MIC reading
Protocol: as §1

S. epidemisis = assay: MIC, agar dilution, multipoint inoculator; assay type: cell-based, Staphylococcus epidermidis; conditions: upper value of MIC reading
Protocol: as §1

[1] = tested on: human mononuclear leucocytes (MNL, white blood cells); assay: direct leucocyte toxicity, tryptan blue exclusion, 18 hours; assay type: cell-based; conditions: for % Leucocyte Death: human, 18 h
Protocol: The in vitro assay used human mononuclear leucocytes (MNL, white blood cells) which were incubated with the test compound for 18 hours and cell death determined by tryptan blue exclusion (tryptan blue is a dye, which stains dead cells, whilst living cells extrude it).
The toxicity of 4PYcq and the aldehyde cq and pyridine-4-carboxamidrazone precursors were assessed using the same in vitro assay with human mononuclear leucocytes as that described above. The toxicity of related compounds, 2-hydroxybenzylidene-pyridine-2-carboxamidrazone 4PYbw and benzylidenepyridine-2-carboxamidrazone 4PYaa were also examined.

S. aboni = assay: MIC, agar dilution, multipoint inoculator; assay type: cell-based; conditions: S. aboni NCTC 6017; upper value of MIC reading
Protocol: as §1

S. haemolyticus = assay: MIC, agar dilution, multipoint inoculator; assay type: cell-based; conditions: Staphylococcus haemolyticus, 18 h; S. haemolyticus Isolate 1; upper value of MIC reading; read-out: MIC
Protocol: as §1

[2] = Staphylococcus aureus, MRSA, 18 h, panel of ten MRSA strains (clinical isolates), read-out: MRSA MIC range

Structure (SMILES): NC(=NN=Cc1cc(O)c(O)cc1O)c1ccc2ccccc2n1 [QNcc]
MIC (S. aureus; S. aureus Cowan 1): 256 µg/mL (≈ 794 µM) | MIC (S. aureus; S. aureus NCTC 6571): 256 µg/mL (≈ 794 µM) | MIC (S. aureus; S. aureus NCTC 10788): 256 µg/mL (≈ 794 µM) | MIC (MRSA; MRSA Isolate 1, upper value of MIC reading, in µg/mL): 256 | MIC (B. bronchiseptica): 256 µg/mL (≈ 794 µM) | MIC (E. faecalis; E. faecalis Isolate 2): 256 µg/mL (≈ 794 µM) | MIC (E. faecalis; E. faecalis Isolate 3): 256 µg/mL (≈ 794 µM)

Structure (SMILES): NC(=NN=Cc1ccc(O)c(O)c1O)c1ccccn1 [Compound 2PYcb]
MIC (S. aureus; S. aureus Cowan 1): 256 µg/mL (≈ 940 µM) | MIC (MRSA; MRSA Isolate 5, upper value of MIC reading, in µg/mL): 256 | MIC (E. faecium): 256 µg/mL (≈ 940 µM) | MIC (S. epidemisis; S. epidemisis Isolate 1): 256 µg/mL (≈ 940 µM) | MIC (B. bronchiseptica): 256 µg/mL (≈ 940 µM)

Structure (SMILES): N=C(NN=Cc1ccccc1)c1ccccn1 [Compound 4PYaa, benzylidenepyridine-2-carboxamidrazone]
direct MNL toxicity (in words) [1]: only mildly toxic in comparison

Structure (SMILES): N/C(=N\N=C\c1ccccc1OCc1ccccc1)c1ccccn1 [Compound 2PYbe]
direct MNL toxicity (in words) [1]: indistinguishable from the background levels | % Leucocyte Death ([1]; 0.1 mM): 5.1 ± 4.1%

Structure (SMILES): N/N=C(\N)c1ccccn1 [Compound 2PY, Pyridine-2-carboxamidrazone]
direct MNL toxicity (in words) [1]: most toxic | % Leucocyte Death ([1]; 1 mM): 12.1 ± 2.2%

Structure (SMILES): CC(C)(C)c1ccc(C=O)cc1 [ae]
direct MNL toxicity (in words) [1]: most toxic | % Leucocyte Death ([1]; 1 mM): 24.1 ± 9.6%

MIC (S. aureus; Staphylococcus aureus, 18 h, S. aureus Cowan 1, read-out: MIC): 32 µg/mL (≈ 98.6 µM) | MIC (S. aureus; Staphylococcus aureus, NCTC6571, 18 h, S. aureus NCTC 6571, read-out: MIC): 32 µg/mL (≈ 98.6 µM) | MIC (S. aureus; Staphylococcus aureus, NCTC10788, 18 h, S. aureus NCTC 10788, read-out: MIC): 64 µg/mL (≈ 197 µM) | MIC (MRSA; Staphylococcus aureus, 18 h, MRSA Isolate 1, upper value of MIC reading, read-out: MIC): 32 µg/mL (≈ 98.6 µM) | MIC (MRSA; Staphylococcus aureus, 18 h, MRSA Isolate 2, upper value of MIC reading, read-out: MIC): 64 µg/mL (≈ 197 µM) | MIC (MRSA; Staphylococcus aureus, 18 h, MRSA Isolate 3, upper value of MIC reading, read-out: MIC): 64 µg/mL (≈ 197 µM) | MIC (MRSA; Staphylococcus aureus, 18 h, MRSA Isolate 4, upper value of MIC reading, read-out: MIC): 32 µg/mL (≈ 98.6 µM) | MIC (MRSA; Staphylococcus aureus, 18 h, MRSA Isolate 5, upper value of MIC reading, read-out: MIC): 32 µg/mL (≈ 98.6 µM) | MIC (MRSA; Staphylococcus aureus, 18 h, MRSA Isolate 6, upper value of MIC reading, read-out: MIC): 32 µg/mL (≈ 98.6 µM) | MIC (MRSA; Staphylococcus aureus, 18 h, MRSA Isolate 7, upper value of MIC reading, read-out: MIC): 64 µg/mL (≈ 197 µM) | MIC (MRSA; Staphylococcus aureus, 18 h, MRSA Isolate 8, upper value of MIC reading, read-out: MIC): 64 µg/mL (≈ 197 µM) | MIC (MRSA; Staphylococcus aureus, 18 h, MRSA Isolate 9, upper value of MIC reading, read-out: MIC): 32 µg/mL (≈ 98.6 µM) | MIC (MRSA; Staphylococcus aureus, 18 h, MRSA Isolate 10, upper value of MIC reading, read-out: MIC): 32 µg/mL (≈ 98.6 µM) | MIC (MRSA; [2]): 16 to 64 µg/mL (≈ 49.3 to 197 µM) | MIC (E. faecium; Enterococcus faecium, NCTC7171, 18 h, read-out: MIC): 256 µg/mL (≈ 789 µM) | MIC (S. epidemisis; Staphylococcus epidermidis, 18 h, S. epidemisis Isolate 1, read-out: MIC): 128 µg/mL (≈ 395 µM) | MIC (S. epidemisis; Staphylococcus epidermidis, NCTC11047, 18 h, S. epidemisis NCTC 11047, read-out: MIC): 256 µg/mL (≈ 789 µM) | MIC (E. faecalis; Enterococcus faecalis, 18 h, E. faecalis Isolate 1, read-out: MIC): 256 µg/mL (≈ 789 µM) | MIC (E. faecalis; Enterococcus faecalis, 18 h, E. faecalis Isolate 2, read-out: MIC): 256 µg/mL (≈ 789 µM) | MIC (E. faecalis; Enterococcus faecalis, 18 h, E. faecalis Isolate 4, read-out: MIC): 256 µg/mL (≈ 789 µM) | MIC (E. faecalis; Enterococcus faecalis, 18 h, E. faecalis Isolate 5, read-out: MIC): 256 µg/mL (≈ 789 µM) | MIC (S. aboni): 32 µg/mL (≈ 98.6 µM)
Structure (SMILES): N/C(=N\N=C\c1c2ccccc2cc2ccccc12)c1ccncc1 [Compound 4PYam]
MIC (S. haemolyticus): 256 µg/mL (≈ 789 µM)

MIC (MRSA; [2]): > 256 µg/mL
Structure (SMILES): CCC(C)(C)c1ccc(/C=N/N=C(\N)c2ccccn2)cc1 [Compound 2PYaf]
direct MNL toxicity (in words) [1]: indistinguishable from the background levels | % Leucocyte Death ([1]; 1 mM): 3.1 ± 1.0%
